Assay results as given in patent US10576059B2, “Substituted phenylpyrrolecarboxamides with therapeutic activity in HIV” (New York Blood Center, Inc., priority 2014, dated 2020).
Where two headings read alike, the source gives them in different places.

Legend:
Format in all cases: cell-based
[1] = system: panel of HIV-1 ENV-pseudoviruses (subtype A, A/D, A2/D, A/E, A/G, B, C and D); assay: microbe, parasite or virus in culture
[2] = system: HIV-1 pseudovirus pseudotyped with HXB2 Env; assay: microbe, parasite or virus in culture; conditions: TZM-bl cells, HIV-1 pseudovirus with HXB2 Env
[3] = Cytotoxicity in TZM-bl cells (XTT); conditions: human
Protocol: (§1) The cytotoxicity of test compounds in TZM-bl cells was also measured by the XTT method described previously^7. […] The soluble intracellular formazan was quantitated colorimetrically at 450 nm 4 h later. The percent of cytotoxicity and the CC50 values were calculated as above. (See Table 4)

PBMC = assay: Cytotoxicity in PBMC (XTT); conditions: 7 days
Protocol: For the PBMC toxicity assay we used 5×10^5 cells/ml and the cytotoxicity of the compounds was measured after 7 days of incubation as previously reported^8. Following the addition of XTT the soluble intracellular formazan was quantitated colorimetrically at 450 nm 4 h later. The percent of cytotoxicity and the CC50 values were calculated as above. (See Table 4)

TZM-bl cells = assay: Cytotoxicity in TZM-bl cells (XTT); conditions: 3 days
Protocol: as §1

[4] = Human immunodeficiency virus 1, HXB2, TZM-bl

SMILES | IC50 [2, 4] | further results
Cc1nc(C(CN)NC(=O)c2ccc(-c3ccc(Cl)cc3)[nH]2)sc1CO (single isomer, unassigned) [Compound 40] |  | IC50 ([1]; Human immunodeficiency virus 1, TZM-bl, read-out: IC50 (μM) ± S.D., subtype B, ENV B41): 0.28 ± 0.03 µM; IC50 ([1]; Human immunodeficiency virus 1, TZM-bl, read-out: IC50 (μM) ± S.D., subtype B, NIH # 11024, ENV AC10.0, clone 29): 0.29 ± 0.03 µM; IC50 ([1]; Human immunodeficiency virus 1, TZM-bl, read-out: IC50 (μM) ± S.D., subtype B, NIH # 11578, ENV pWEAUd15.410.5017): 0.28 ± 0.04 µM; IC50 ([1]; subtype A, ENV BG505-T332N, read-out: IC50 (μM) ± S.D.): 0.33 ± 0.04 µM
Cc1nc(C(NC(=O)c2ccc(-c3ccc(Cl)c(F)c3)[nH]2)C2CCCCN2)[nH]c1CO (single isomer, unassigned) [Compound 35] | 9 ± 0.2 µM | 
Cc1nc(C(CN(C)C)NC(=O)c2ccc(-c3ccc(Cl)cc3)[nH]2)sc1CO (stereo not drawn) [Compound 66] | 16.5 ± 3.4 µM | 
Cc1nc(C(CN)NC(=O)c2ccc(-c3ccc(Cl)c(F)c3)[nH]2)sc1CO (single isomer, unassigned) [Compound 51] | 1.4 ± 0.5 µM | 
CN1CCN(NC(=O)C(CCCNC(=N)N)NC(=O)c2ccc(-c3ccc(Cl)cc3)[nH]2)CC1 (stereo not drawn) [Compound 8] | > 42 µM | 
CS(=O)(=O)NCCNC(=O)C(CCCNC(=N)N)NC(=O)c1ccc(-c2ccc(Cl)cc2)[nH]1 (stereo not drawn) [Compound 6] | > 37 µM | 
Cc1ccc(-c2ccc(C(=O)NC(CNC(=N)N)c3nc(C)c(CO)s3)[nH]2)cc1F (single isomer, unassigned) [Compound 49] | > 28 µM | 
N=C(N)NCCCC(NC(=O)c1ccc(-c2ccc(Cl)cc2)[nH]1)C(=O)NN1CCOCC1 (stereo not drawn) [Compound 9] | > 40 µM | 
Cc1ccc(-c2ccc(C(=O)NC(c3nc(C)c(CO)s3)C3CCCCN3)[nH]2)cc1F (single isomer, unassigned) [Compound 22] | 2.7 ± 0.2 µM | 
Cc1n[nH]c(C)c1CNC(=O)c1ccc(-c2ccc(Cl)cc2)[nH]1 [Compound 11] | ~60 µM | 
Cc1nc(C(NC(=O)c2ccc(-c3ccc(Cl)cc3)[nH]2)C2CCCCN2)[nH]c1CO (single isomer, unassigned) [Compound 33] | 14 ± 0.1 µM | 
Cc1nc(C(CCN(C)C)NC(=O)c2ccc(-c3ccc(Cl)cc3)[nH]2)sc1CO (stereo not drawn) [Compound 80] | 14.2 ± 0.7 µM | 
Cc1nc(C(CNC(=N)N)NC(=O)c2ccc(-c3ccc(Cl)c(F)c3)[nH]2)sc1CO (single isomer, unassigned) [Compound 48] | > 27 µM | 
N=C(N)NCCCC(NC(=O)c1ccc(-c2ccc(Cl)cc2)[nH]1)C(=O)NCCO (stereo not drawn) [Compound 4] | > 44 µM | 
O=C(NC(c1ccccc1)c1ccc[nH]1)c1ccc(-c2ccc(Cl)cc2)[nH]1 (stereo not drawn) [Compound 1] | 16.4 ± 1.5 µM | 
N=C(N)NCCCC(NC(=O)c1ccc(-c2ccccc2)[nH]1)C(=O)NCCO (stereo not drawn) [Compound 5] | > 47 µM | 
Cc1nccn1Cc1ccc(CNC(=O)c2ccc(-c3ccc(Cl)cc3)[nH]2)o1 [Compound 12] | 14.1 ± 1.3 µM | 
Cc1nc(C(CN)NC(=O)c2cc3ccccc3[nH]2)sc1CO (stereo not drawn) [Compound 62] | > 60 µM | CC50 at 3 days [3]: > 60 µM
Cc1nc(C(NC(=O)c2ccc(-c3ccc(Cl)c(F)c3)[nH]2)C2CCCCN2)sc1CCO (single isomer, unassigned) [Compound 26] | 7.5 ± 0.2 µM | 
CCN(CC)Cc1ccc(OC)c(CNC(=O)c2ccc(-c3ccc(Cl)cc3)[nH]2)c1 [Compound 13] | 4.3 ± 0.1 µM | 
Cc1nc(C(NC(=O)C(=O)Nc2ccc(Cl)cc2)C2CCCCN2)sc1CO (stereo not drawn) [NBD-09027] |  | CC50 (PBMC): > 160 µM
Cc1ccc(-c2ccc(C(=O)NC(c3nc(C)c(CCCO)s3)C3CCCCN3)[nH]2)cc1F (single isomer, unassigned) [Compound 30] | 11.2 ± 0.7 µM | 
Cc1nc(C(CN(C)C)NC(=O)c2ccc(-c3ccc(Cl)c(F)c3)[nH]2)sc1CO (stereo not drawn) [Compound 71] | 3.6 ± 1 µM | 
NCC(NC(=O)c1ccc(-c2ccc(Cl)c(F)c2)[nH]1)c1ncc(CO)s1 (stereo not drawn) [Compound 94] | 1.1 ± 0.8 µM | 
Cc1nc(C(CN)NC(=O)c2cc3cc(Cl)ccc3[nH]2)sc1CO (stereo not drawn) [Compound 60] | > 40 µM | CC50 at 3 days [3]: ~47 µM

SMILES | IC50 [2, 4] | further results
CNc1cc(NC(=O)c2ccc(-c3ccc(F)c(Cl)c3)[nH]2)nc(NC(=N)N)n1 [Compound 53] | > 36 µM | 
Cc1ccc(-c2ccc(C(=O)NC(CN)c3nc(C)c(CO)s3)[nH]2)cc1F (single isomer, unassigned) [Compound 43] | 1.7 ± 0.4 µM | 
Cc1nc(C(CN)NC(=O)c2ncc(-c3ccc(Cl)cc3)[nH]2)sc1CO (stereo not drawn) [Compound 99] | 34.9 ± 3 µM | 
CC(=O)NCC(NC(=O)c1ccc(-c2ccc(Cl)c(F)c2)[nH]1)c1nc(C)c(CO)s1 (stereo not drawn) [Compound 65] |  | IC50 [2]: ~40 µM
Cc1nc(C(CNC(=N)N)NC(=O)c2ccc(-c3ccc(Cl)cc3)[nH]2)sc1CO (single isomer, unassigned) [Compound 45] | > 37 µM | 
Cc1nc(C(CCN)NC(=O)c2ccc(-c3ccc(Cl)c(F)c3)[nH]2)sc1CO (stereo not drawn) [Compound 90] | 4.1 ± 1.5 µM | 
Cc1nc(C(NC(=O)c2ccc(-c3ccc(Cl)cc3)[nH]2)C2CCCCN2)sc1CCO (single isomer, unassigned) [Compound 28] | 8.9 ± 0.2 µM | 
CC(=O)NCC(NC(=O)c1ccc(-c2ccc(Cl)c(F)c2)[nH]1)c1nc(C)c(CO)s1 (stereo not drawn) [Compound 64] | ~40 µM | 
Cc1cc(-c2ccc(Cl)cc2)[nH]c1C(=O)NC(CN)c1nc(C)c(CO)s1 (stereo not drawn) [Compound 73] | 2.2 ± 0.8 µM | 
Cc1ccc(-c2ccc(C(=O)NC(CCN(C)C)c3nc(C)c(CO)s3)[nH]2)cc1F (stereo not drawn) [Compound 76] | 11 ± 2.5 µM | 
Cc1nc(C(CN)NC(=O)c2cc3ccccc3[nH]2)sc1CO (stereo not drawn) [Compound 63] |  | CC50 (TZM-bl cells): > 60 µM; IC50 [2]: > 60 µM
CS(=O)(=O)NCCNC(=O)C(CCCNC(=N)N)NC(=O)c1ccc(-c2ccccc2)[nH]1 (stereo not drawn) [Compound 7] | > 43 µM | 
N=C(N)NCCCC(NC(=O)c1ccc(-c2ccccc2)[nH]1)C(=O)NN1CCOCC1 (stereo not drawn) [Compound 10] | > 43 µM | 
Cc1nc(C(NC(=O)c2ccc(-c3ccc(Cl)c(F)c3)[nH]2)C2CCCCN2)sc1CO (single isomer, unassigned) [Compound 20] | 3 ± 0.4 µM | 
NS(=O)(=O)c1ccc(CCNC(=O)c2ccc(-c3ccc(Cl)cc3)[nH]2)cc1 [Compound 14] | > 50 µM | 
Cc1cc(C(=O)NC(CN)c2nc(C)c(CO)s2)[nH]c1-c1ccc(Cl)cc1 (stereo not drawn) [Compound 101] | 3.6 ± 0.4 µM | 
Cc1nc(C(CN)NC(=O)c2cnc(-c3ccc(Cl)cc3)[nH]2)sc1CO (stereo not drawn) [Compound 98] |  | IC50 [2]: > 51 µM
Cc1nc(C(CN)NC(=O)c2cnc(-c3ccc(Cl)cc3)[nH]2)sc1CO (stereo not drawn) [Compound 97] | > 51 µM | 
N=C(N)Nc1ccc(CC(NC(=O)c2ccc(-c3ccc(Cl)cc3)[nH]2)C(=O)N2CCOCC2)cc1 (stereo not drawn) [Compound 3] | > 36 µM | 
Cc1nc(C(NC(=O)c2ccc(-c3ccc(Cl)cc3)[nH]2)C2CCCCN2)sc1CCCO (stereo not drawn) [Compound 32] | 7.6 ± 0.8 µM | 
Cc1nc(C(CN)NC(=O)c2cc3cc(Cl)ccc3[nH]2)sc1CO (stereo not drawn) [Compound 61] |  | CC50 (TZM-bl cells): > 55 µM; IC50 [2]: ~50 µM
CC(=O)NCC(NC(=O)c1ccc(-c2ccc(Cl)c(F)c2)[nH]1)c1nc(C)c(COC(C)=O)s1 (stereo not drawn) [Compound 70] | > 40 µM | 
Cc1ccc(-c2ccc(C(=O)NC(c3nc(C)c(CCO)s3)C3CCCCN3)[nH]2)cc1F (single isomer, unassigned) [Compound 24] | 10.6 ± 0.1 µM | 
Nc1nc(CNC(=O)c2ccc(-c3ccc(Cl)cc3)[nH]2)n[nH]1 [Compound 2] | > 63 µM | 
Cc1nc(C(NC(=O)c2ccc(-c3ccc(Cl)c(F)c3)[nH]2)C2CCCCN2)sc1CCCO (single isomer, unassigned) [Compound 31] | 5.1 ± 0.7 µM | 
